Test results reported in PubChem BioAssay AID256 (DTP/NCI, 2004).
Values joined by “and” are separate entries in the source; they are usually repeats but may differ in a detail not shown here. Equal entries are not always repeated. Toxic doses and inconclusive results are not listed. The calls were made as follows: active = survival T/C of 150% or more; inactive = T/C below 125% in these data.

Test system: CD2F1 mice, L1210 leukemia ip, survival T/C
Assay: NCI In Vivo Anticancer Drug Screen. Data for tumor model L1210 Leukemia (intraperitoneal) in CD2F1 (CDF1) mice
Conditions: higher = longer survival
How it was run: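 Vehicle-treated tumor-bearing mice served as controls (C) for compound-treated mice (T). Reported figure is T divided by C.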

[1] = endpoint: mean survival time, dose: 100.0 mg/kg/injection, schedule: Q01DX009 (ip), vehicle: saline with Tween-80
[2] = endpoint: mean survival time, dose: 200.0 mg/kg/injection, schedule: Q01DX009 (ip), vehicle: saline with Tween-80
[3] = endpoint: mean survival time, dose: 50.0 mg/kg/injection, schedule: Q01DX009 (ip), vehicle: saline
[4] = endpoint: mean survival time, dose: 50.0 mg/kg/injection, schedule: Q04DX003 (ip), vehicle: saline
[5] = endpoint: mean survival time, dose: 100.0 mg/kg/injection, schedule: Q01DX001 (ip), vehicle: saline
[6] = endpoint: mean survival time, dose: 100.0 mg/kg/injection, schedule: Q01DX009 (ip), vehicle: saline
[7] = endpoint: mean survival time, dose: 200.0 mg/kg/injection, schedule: Q01DX001 (ip), vehicle: saline
[8] = endpoint: mean survival time, dose: 200.0 mg/kg/injection, schedule: Q01DX009 (ip), vehicle: saline
[9] = endpoint: mean survival time, dose: 400.0 mg/kg/injection, schedule: Q01DX009 (ip), vehicle: saline with Tween-80
[10] = endpoint: mean survival time, dose: 100.0 mg/kg/injection, schedule: Q04DX003 (ip), vehicle: saline with Tween-80
[11] = endpoint: mean survival time, dose: 200.0 mg/kg/injection, schedule: Q04DX003 (ip), vehicle: saline with Tween-80
[12] = endpoint: mean survival time, dose: 400.0 mg/kg/injection, schedule: Q04DX003 (ip), vehicle: saline with Tween-80
[13] = endpoint: mean survival time, dose: 25.0 mg/kg/injection, schedule: Q04DX003 (ip), vehicle: saline

Measured: T/C

NC(=O)SCCCCl
inactive: [1] 103 % of control | endpoint: mean survival time, dose: 118.0 mg/kg/injection, schedule: Q01DX009 (ip), vehicle: saline with Tween-80 106 % of control | endpoint: mean survival time, dose: 178.0 mg/kg/injection, schedule: Q01DX009 (ip), vehicle: saline with Tween-80 112 % of control | [2] 113 % of control | endpoint: mean survival time, dose: 266.0 mg/kg/injection, schedule: Q01DX009 (ip), vehicle: saline with Tween-80 124 % of control

O=C(O)C(O)C(O)C1[O][Sb][O]C1CO (centres undefined)
inactive: endpoint: mean survival time, dose: 50.0 mg/kg/injection, schedule: Q01DX001 (ip), vehicle: saline 97 % of control | [3] 95 % of control | [4] 91 % of control | [5] 93 % of control | [6] 96 % of control | endpoint: mean survival time, dose: 100.0 mg/kg/injection, schedule: Q04DX003 (ip), vehicle: saline 92 % of control | [7] 98 % of control | [8] 96 % of control | endpoint: mean survival time, dose: 200.0 mg/kg/injection, schedule: Q04DX003 (ip), vehicle: saline 92 % of control

BrCC[n+]1ccc(-c2cc[n+](CCBr)cc2)cc1
inactive: endpoint: mean survival time, dose: 10.0 mg/kg/injection, schedule: Q01DX001 (ip), vehicle: Klucel (hydroxypropylcellulose) (HPC) 110 % of control | endpoint: mean survival time, dose: 20.0 mg/kg/injection, schedule: Q01DX001 (ip), vehicle: Klucel (hydroxypropylcellulose) (HPC) 93 % of control | endpoint: mean survival time, dose: 40.0 mg/kg/injection, schedule: Q01DX001 (ip), vehicle: Klucel (hydroxypropylcellulose) (HPC) 98 % of control

Clc1cc(Cl)c(OCC#CI)cc1Cl
inactive: endpoint: mean survival time, dose: 50.0 mg/kg/injection, schedule: Q01DX001 (ip), vehicle: carboxymethylcellulose (CMC) 91 % of control | endpoint: mean survival time, dose: 100.0 mg/kg/injection, schedule: Q01DX001 (ip), vehicle: carboxymethylcellulose (CMC) 102 % of control | endpoint: mean survival time, dose: 200.0 mg/kg/injection, schedule: Q01DX001 (ip), vehicle: carboxymethylcellulose (CMC) 91 % of control | endpoint: mean survival time, dose: 400.0 mg/kg/injection, schedule: Q01DX001 (ip), vehicle: carboxymethylcellulose (CMC) 89 % of control

COc1ccc(OC)c(NC(=O)C2CC2)c1
inactive: [1] 97 % of control | [2] 102 % of control | [9] 98 % of control

CC(=O)OCc1cccnc1
inactive: [6] 96 % of control | [8] 94 % of control | endpoint: mean survival time, dose: 400.0 mg/kg/injection, schedule: Q01DX009 (ip), vehicle: saline 86 % of control

CCCCCCCCCCCCSC1=CC(=O)C(OC)=C(OC)C1=O
inactive: endpoint: mean survival time, dose: 0.78 mg/kg/injection, schedule: Q01DX009 (ip), vehicle: other 95 % of control | endpoint: mean survival time, dose: 1.56 mg/kg/injection, schedule: Q01DX009 (ip), vehicle: other 95 % of control | endpoint: mean survival time, dose: 3.13 mg/kg/injection, schedule: Q01DX009 (ip), vehicle: other 97 % of control | endpoint: mean survival time, dose: 6.25 mg/kg/injection, schedule: Q01DX009 (ip), vehicle: other 97 % of control | endpoint: mean survival time, dose: 12.5 mg/kg/injection, schedule: Q01DX009 (ip), vehicle: other 95 % of control | endpoint: mean survival time, dose: 25.0 mg/kg/injection, schedule: Q01DX009 (ip), vehicle: other 94 % of control

CSc1ncnc2c1c1c(N)ncnc1n2C1OC(CO)C(O)C1O (centres undefined)
inactive: endpoint: mean survival time, dose: 12.5 mg/kg/injection, schedule: Q01DX005 (ip), vehicle: other 107 % of control | endpoint: mean survival time, dose: 25.0 mg/kg/injection, schedule: Q01DX005 (ip), vehicle: other 101 % of control | endpoint: mean survival time, dose: 50.0 mg/kg/injection, schedule: Q01DX005 (ip), vehicle: other 95 % of control | endpoint: mean survival time, dose: 100.0 mg/kg/injection, schedule: Q01DX005 (ip), vehicle: other 103 % of control | endpoint: mean survival time, dose: 200.0 mg/kg/injection, schedule: Q01DX005 (ip), vehicle: other 109 % of control

NC(N)=NOCC[C@@H](N)C(=O)O
inactive: endpoint: median survival time, dose: 25.0 mg/kg/injection, schedule: Q01DX009 (ip), vehicle: saline 102 % of control | endpoint: median survival time, dose: 50.0 mg/kg/injection, schedule: Q01DX009 (ip), vehicle: saline 101 % of control | endpoint: median survival time, dose: 100.0 mg/kg/injection, schedule: Q01DX009 (ip), vehicle: saline 98 % of control | endpoint: median survival time, dose: 200.0 mg/kg/injection, schedule: Q01DX009 (ip), vehicle: saline 103 % of control | endpoint: median survival time, dose: 400.0 mg/kg/injection, schedule: Q01DX009 (ip), vehicle: saline 102 % of control | endpoint: median survival time, dose: 500.0 mg/kg/injection, schedule: Q01DX001 (ip), vehicle: saline 97 % of control | endpoint: median survival time, dose: 750.0 mg/kg/injection, schedule: Q01DX001 (ip), vehicle: saline 96 % of control | endpoint: median survival time, dose: 1000.0 mg/kg/injection, schedule: Q01DX001 (ip), vehicle: saline 84 % of control | endpoint: median survival time, dose: 2500.0 mg/kg/injection, schedule: Q01DX001 (ip), vehicle: saline 97 % of control

CC(C)NC1=C(NC(=O)NC(=O)c2ccccc2)C(=O)c2ccccc2C1=O
inactive: endpoint: mean survival time, dose: 100.0 mg/kg/injection, schedule: Q01DX001 (ip), vehicle: other 100 % of control | endpoint: mean survival time, dose: 200.0 mg/kg/injection, schedule: Q01DX001 (ip), vehicle: other 103 % of control | endpoint: mean survival time, dose: 400.0 mg/kg/injection, schedule: Q01DX001 (ip), vehicle: other 106 % of control

O=C(O)C1CCc2c(cnn2-c2ccccc2)C1 (centres undefined)
inactive: endpoint: mean survival time, dose: 100.0 mg/kg/injection, schedule: Q04DX002 (ip), vehicle: saline with Tween-80 88 % of control | endpoint: mean survival time, dose: 200.0 mg/kg/injection, schedule: Q04DX002 (ip), vehicle: saline with Tween-80 100 % of control | endpoint: mean survival time, dose: 400.0 mg/kg/injection, schedule: Q04DX002 (ip), vehicle: saline with Tween-80 92 % of control

O=C(O)C(O)(C1CCCCC1)C1CCC2CCC3CCCC1C32 (centres undefined)
inactive: [10] 105 % of control | [11] 87 % of control | [12] 105 % of control

C1CCC(C2CCCC[N-]2)[N-]C1.CSCCC([NH-])C(=O)O.[Cl][Pt] (centres undefined)
inactive: endpoint: median survival time, dose: 10.0 mg/kg/injection, schedule: Q04DX003 (ip), vehicle: saline 101 % of control | endpoint: median survival time, dose: 20.0 mg/kg/injection, schedule: Q04DX003 (ip), vehicle: saline 101 % of control | endpoint: median survival time, dose: 40.0 mg/kg/injection, schedule: Q04DX003 (ip), vehicle: saline 94 % of control | endpoint: median survival time, dose: 80.0 mg/kg/injection, schedule: Q04DX003 (ip), vehicle: saline 101 % of control and 103 % of control | endpoint: median survival time, dose: 160.0 mg/kg/injection, schedule: Q04DX003 (ip), vehicle: saline 96 % of control | endpoint: median survival time, dose: 320.0 mg/kg/injection, schedule: Q04DX003 (ip), vehicle: saline 108 % of control

CCCC(O)C(N)CC (centres undefined)
inactive: [5] 98 % of control | [7] 90 % of control

CC12CCC(=O)C=C1CCC1C2CCC2(C)C(C(=O)Cn3c(=O)cc[nH]c3=O)CCC12 (centres undefined)
inactive: endpoint: mean survival time, dose: 12.5 mg/kg/injection, schedule: Q04DX003 (ip), vehicle: Klucel (hydroxypropylcellulose) (HPC) 91 % of control | endpoint: mean survival time, dose: 25.0 mg/kg/injection, schedule: Q04DX003 (ip), vehicle: Klucel (hydroxypropylcellulose) (HPC) 97 % of control | endpoint: mean survival time, dose: 50.0 mg/kg/injection, schedule: Q04DX003 (ip), vehicle: Klucel (hydroxypropylcellulose) (HPC) 91 % of control | endpoint: mean survival time, dose: 100.0 mg/kg/injection, schedule: Q04DX003 (ip), vehicle: Klucel (hydroxypropylcellulose) (HPC) 95 % of control | endpoint: mean survival time, dose: 200.0 mg/kg/injection, schedule: Q04DX003 (ip), vehicle: Klucel (hydroxypropylcellulose) (HPC) 103 % of control

N#Cc1ccc(C(=O)CC(O)(C(F)(F)F)C(F)(F)F)cc1
inactive: [10] 101 % of control | [11] 101 % of control | [12] 98 % of control

COc1cc([N+](=O)[O-])c(C=O)c(C(=O)O)c1OC
inactive: [1] 103 % of control | [10] 90 % of control | [2] 104 % of control | [11] 98 % of control | [9] 110 % of control | [12] 107 % of control

O=CC(=O)c1ccc(O)cc1
inactive: endpoint: mean survival time, dose: 6.25 mg/kg/injection, schedule: Q01DX009 (ip), vehicle: saline 101 % of control | endpoint: mean survival time, dose: 12.5 mg/kg/injection, schedule: Q01DX009 (ip), vehicle: saline 97 % of control | endpoint: mean survival time, dose: 25.0 mg/kg/injection, schedule: Q01DX009 (ip), vehicle: saline 100 % of control | [3] 103 % of control | [6] 108 % of control

O/N=C\C[n+]1cc2ccccc2cc1/C=N\O
inactive: endpoint: mean survival time, dose: 12.5 mg/kg/injection, schedule: Q04DX003 (ip), vehicle: saline 93 % of control | [13] 101 % of control | [4] 90 % of control

C#CCO
inactive: endpoint: mean survival time, dose: 12.0 mg/kg/injection, schedule: Q04DX003 (ip), vehicle: saline 94 % of control | [13] 97 % of control | [4] 103 % of control
